Results on nine molecules are retold here after PubChem BioAssay (NCI).

“And” between values parts separate entries of the source, which are not always exact repeats. Equal entries are not always repeated.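 Cells were grown in 96-well plates and exposed to each compound for 48 hours at five concentrations; endpoints were interpolated linearly between bracketing concentrations, or set to the highest concentration if not reached. The concentration for 50% growth inhibition is given as GI50. TGI denotes the concentration required for complete inhibition of growth.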

What all share (assay): NCI anticancer screen, dose series, 48 h
Assay [1] deals with A498 renal.
Assay [2] has as its system HCT-15 colon.
In assay [3] the test system is HT29 colon.
Assay [4] relates to IGROV1 ovarian.
Assay [5] deals with OVCAR-3 ovarian.
The subject of assay [6] is OVCAR-4 ovarian.
Assay [7] has as its system OVCAR-5 ovarian.
Assay [8] has as its system SK-MEL-28 melanoma.
Assay [9] deals with SNB-19 CNS.
The subject of assay [10] is TK-10 renal.

Regarding `COc1ccc2c(c1)C(=O)c1c-2n(CCCN2CCOCC2)c(=O)c2cc([N+](=O)[O-])ccc12`, the GI50 in assay [1] is under 0.01 µM; in assay [2], under 0.0151 µM; in assay [3], under 0.01 µM; in [4], under 0.01 µM; in [5], under 0.0113 µM; in [6] it was under 0.0264 µM. In addition, the GI50 in assay [7] is under 0.01 µM; in assay [9], under 0.01 µM; in [10] it was 0.0623 µM. The TGI in assay [1] was 0.117 µM; in assay [2], 13.3 µM; in [3], over 100 µM; in [4], 25.7 µM; in [5] it was 1.49 µM; in assay [6], 6.55 µM. Moreover, the TGI in assay [7] is 0.889 µM; in assay [8], 16.2 µM; in [9] it was over 36.5 µM; in assay [10], 17.7 µM.
Turning to `COc1cc(/C=C2\C(=O)Nc3ccccc32)cc(OC)c1OC`, the GI50 in assay [1] is 27.4 µM; in assay [2], 11.6 µM; in assay [3] it was 19.8 µM; in assay [4], 20 µM; in [5], 25.4 µM; in [6], 22.1 µM. The GI50 is 29.2 µM in assay [7], 41.8 µM in assay [8], 27.1 µM in assay [9] and 29.4 µM in assay [10]. For the same molecule, the TGI in assay [1], in [2], in [3], in [4], in assay [5] and in assay [6] was over 100 µM each time. For the same molecule, the TGI was 76.2 µM in assay [7], over 100 µM in [8], over 100 µM in [9] and over 100 µM in [10].
As to `COc1ccccc1NC(=O)CC(=O)NNCC(=O)Nc1nnc(-c2ccccc2)o1`, the TGI in [1], in assay [2], in assay [3], in assay [4], in assay [5] and in assay [6] was over 100 µM each time. In addition, the TGI in [7], in assay [8], in [9] and in assay [10] was over 100 µM throughout.
In the case of `Cc1ccccc1C(C(=O)NC1CCCCC1)N(C(=O)Cn1ccnc1C)c1cccc(F)c1` (stereo not given), the GI50 in [1] is 27.1 µM; in assay [2], over 100 µM; in [3], over 100 µM; in [4], over 77 µM; in assay [5] it was over 69.5 µM; in assay [6], over 76.7 µM. For the same molecule, the GI50 is over 100 µM in [7], over 100 µM in assay [8], 57 µM in [9] and 27.5 µM in assay [10]. In addition, the TGI in assay [1] is over 83.9 µM; in assay [2], over 100 µM; in assay [3], over 100 µM; in assay [4] it was over 100 µM; in assay [5], over 100 µM; in assay [6], over 100 µM. Also, the TGI in [7] is over 100 µM; in [8], over 100 µM; in assay [9] it was over 100 µM; in assay [10], 71.7 µM.
As to `Cc1cc(NC(=O)NC(=O)c2ccccc2NC(=O)CN)ccc1Oc1ncc(Br)cn1`, the GI50 in assay [1] was under 0.01 µM; in assay [3], 0.0653 µM; in [4] it was 0.284 µM; in assay [5], 0.0157 µM; in assay [6], 17 µM; in assay [7] it was 0.541 µM. Besides, the results for the GI50 in [8], in [9] and in [10] were 0.0822 µM, 0.336 µM and 3.73 µM, respectively. The TGI is 42.2 µM in [2]; 27.7 µM and 49.5 µM in assay [4]; 45.4 µM and > 100 µM in [6]; 43.6 µM and 75.2 µM in assay [7]; 41.2 µM and > 100 µM in [8]; 26.3 µM and 16.4 µM in [9]. In assay [10], the TGI is 36.4 µM and 25.3 µM.
For `CNCCOC(=O)/C=C1/CCC2C(C(O)CC3C(C)(C(=O)OC)CCCC23C)C1C` (stereo not given), the GI50 in assay [1] is 0.0161 µM; in [2] it was 0.0258 µM; in assay [3], 0.0231 µM; in [4], 0.0305 µM; in assay [5] it was under 0.0139 µM; in assay [6] it was 0.0183 µM. Besides, the GI50 in assay [7] was 0.0264 µM; in assay [8], 0.029 µM; in [9], 0.0428 µM; in [10], 0.0168 µM. In addition, the TGI worked out at 0.0585 µM in [1]; 0.0654 µM in [2]; 0.0473 µM in assay [3]; 0.0971 µM in [4]; 0.0276 µM in assay [5]; 0.034 µM in assay [6]. Further, the TGI stood at 0.0693 µM in assay [7], 0.0758 µM in assay [8], 0.152 µM in [9] and 0.0351 µM in [10].
For `CC(C)=CC1CC(C)C2(CCC3(C)CC4C(C(=O)CC4(C)O)/C(C=O)=C\CC32)O1` (stereo not given), the TGI in assay [1] was 0.979 µM; in assay [2], 0.105 µM; in assay [3], 0.102 µM; in assay [4], 0.296 µM; in [5], 0.0503 µM; in assay [6], 0.147 µM. Besides, the TGI came to 0.33 µM in assay [7], 0.277 µM in assay [8], 0.607 µM in assay [9] and 0.0596 µM in assay [10].
Regarding `COC(=O)C1=Cc2c(cc(OC)c(OC)c2OC)[C@H](c2ccc(OC)c(OC)c2OC)C1C(=O)OC` (stereo not given in full), the TGI in [1], in assay [2], in [3], in assay [4], in assay [5] and in [6] was over 100 µM in each case. Moreover, the TGI in assay [7], in [8], in [9] and in [10] was over 100 µM each time.
As for `Oc1cc(Cl)ccc1Cc1ccc(Cl)cc1O`, the GI50 is 17.4 µM in [1]; 8.09 µM in assay [2]; 17.5 µM in assay [3]; 12.5 µM in assay [4]; 3.71 µM in assay [5]; 6.6 µM in assay [6]. In addition, the GI50 in assay [7] was 15.1 µM; in [8] it was 8.26 µM; in assay [9] it was 14.3 µM; in [10] it was 17 µM. The TGI in assay [1] stood at 31.3 µM; in assay [2] it was 20.3 µM; in assay [3], 31.3 µM; in assay [4] it was 31.2 µM; in assay [5], 13.9 µM; in assay [6], 34.8 µM. The TGI in assay [7] was 31.8 µM; in assay [8], 20.7 µM; in [9], 45.1 µM; in assay [10], 34.8 µM.
